Measured values reported in patent US20100041089A1, “IMPROVED METHOD FOR DETECTING CHEMICAL […]” (priority 2006, published 2010).

System: yeast genes (expressed mRNA)
Assay: DNA chip measurement of expressed mRNA of yeast genes after culture with a toxic chemical substance
Type: cell-based, Saccharomyces cerevisiae S288C
Conditions: for level of expressed mRNA in the presence of chemical substance / level in the absence of chemical substance: cultured two hours with the chemical substance; for The level of expressed mRNA in the presence of chemical substance/The level of expressed mRNA in the absence of chemical substance: cultured two hours with substance
How it was run: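 Expression is given as treated/untreated fluorescence ratio on a whole-genome yeast DNA chip, a ratio of two or more being significant. Log-phase S288C cultures in YPD at 25 °C received the chemical for 2 h at a dose that slows growth without killing. mRNA was reverse-transcribed with Cy3- or Cy5-dUTP.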

Na2As [(1)]
level of expressed mRNA in the presence of chemical substance / level in the absence of chemical substance (yeast gene YNL058C): 2.0 | level of expressed mRNA in the presence of chemical substance / level in the absence of chemical substance (yeast gene YNL063W): 0.9 | The level of expressed mRNA in the presence of chemical substance/The level of expressed mRNA in the absence of chemical substance (yeast gene YNL074C): 0.9 | The level of expressed mRNA in the presence of chemical substance/The level of expressed mRNA in the absence of chemical substance (yeast gene YNL092W): 1.3 | The level of expressed mRNA in the presence of chemical substance/The level of expressed mRNA in the absence of chemical substance (yeast gene YNL115C): 0.7 | The level of expressed mRNA in the presence of chemical substance/The level of expressed mRNA in the absence of chemical substance (yeast gene YNL156C): 1.1 | level of expressed mRNA in the presence of chemical substance / level in the absence of chemical substance (yeast gene YNL176C): 1.1 | level of expressed mRNA in the presence of chemical substance / level in the absence of chemical substance (yeast gene YNL194C): 1.6 | level of expressed mRNA in the presence of chemical substance / level in the absence of chemical substance (yeast gene YNL200C): 1.0 | The level of expressed mRNA in the presence of chemical substance/The level of expressed mRNA in the absence of chemical substance (yeast gene YNL234W): 1.1 | level of expressed mRNA in the presence of chemical substance / level in the absence of chemical substance (yeast gene YNL253W): 1.3 | level of expressed mRNA in the presence of chemical substance / level in the absence of chemical substance (yeast gene YNL276C): 1.3 | The level of expressed mRNA in the presence of chemical substance/The level of expressed mRNA in the absence of chemical substance (yeast gene YNL281W): 1.0 | The level of expressed mRNA in the presence of chemical substance/The level of expressed mRNA in the absence of chemical substance (yeast gene YNL305C): 0.9 | level of expressed mRNA in the presence of chemical substance / level in the absence of chemical substance (yeast gene YNR051C): 0.7 | The level of expressed mRNA in the presence of chemical substance/The level of expressed mRNA in the absence of chemical substance (yeast gene YNR068C): 1.2 | level of expressed mRNA in the presence of chemical substance / level in the absence of chemical substance (yeast gene YOL026C): 1.2 | The level of expressed mRNA in the presence of chemical substance/The level of expressed mRNA in the absence of chemical substance (yeast gene YOL032W): 1.3 | The level of expressed mRNA in the presence of chemical substance/The level of expressed mRNA in the absence of chemical substance (yeast gene YOL036W): 0.8 | The level of expressed mRNA in the presence of chemical substance/The level of expressed mRNA in the absence of chemical substance (yeast gene YOL047C): 1.4 | The level of expressed mRNA in the presence of chemical substance/The level of expressed mRNA in the absence of chemical substance (yeast gene YOL071W): 1.3 | The level of expressed mRNA in the presence of chemical substance/The level of expressed mRNA in the absence of chemical substance (yeast gene YOL082W): 1.0 | The level of expressed mRNA in the presence of chemical substance/The level of expressed mRNA in the absence of chemical substance (yeast gene YOL083W): 1.1 | The level of expressed mRNA in the presence of chemical substance/The level of expressed mRNA in the absence of chemical substance (yeast gene YOL117W): 1.0 | The level of expressed mRNA in the presence of chemical substance/The level of expressed mRNA in the absence of chemical substance (yeast gene YOL131W): 1.0 | The level of expressed mRNA in the presence of chemical substance/The level of expressed mRNA in the absence of chemical substance (yeast gene YOL150C): 4.1 | The level of expressed mRNA in the presence of chemical substance/The level of expressed mRNA in the absence of chemical substance (yeast gene YOL162W): 2.0 | The level of expressed mRNA in the presence of chemical substance/The level of expressed mRNA in the absence of chemical substance (yeast gene YOR019W): 2.9 | level of expressed mRNA in the presence of chemical substance / level in the absence of chemical substance (yeast gene YOR022C): 1.3 | level of expressed mRNA in the presence of chemical substance / level in the absence of chemical substance (yeast gene YOR087W): 0.7 | level of expressed mRNA in the presence of chemical substance / level in the absence of chemical substance (yeast gene YOR138C): 0.8 | The level of expressed mRNA in the presence of chemical substance/The level of expressed mRNA in the absence of chemical substance (yeast gene YOR197W): 0.8 | level of expressed mRNA in the presence of chemical substance / level in the absence of chemical substance (yeast gene YOR253W): 0.9 | level of expressed mRNA in the presence of chemical substance / level in the absence of chemical substance (yeast gene YOR267C): 0.8 | level of expressed mRNA in the presence of chemical substance / level in the absence of chemical substance (yeast gene YOR325W): 1.0 | level of expressed mRNA in the presence of chemical substance / level in the absence of chemical substance (yeast gene YPL005W): 1.0 | The level of expressed mRNA in the presence of chemical substance/The level of expressed mRNA in the absence of chemical substance (yeast gene YPL087W): 1.0 | level of expressed mRNA in the presence of chemical substance / level in the absence of chemical substance (yeast gene YPL150W): 0.7 | level of expressed mRNA in the presence of chemical substance / level in the absence of chemical substance (yeast gene YPL152W): 1.4 | level of expressed mRNA in the presence of chemical substance / level in the absence of chemical substance (yeast gene YPL168W): 1.1 | level of expressed mRNA in the presence of chemical substance / level in the absence of chemical substance (yeast gene YPL180W): 0.9 | level of expressed mRNA in the presence of chemical substance / level in the absence of chemical substance (yeast gene YPL188W): 1.3 | The level of expressed mRNA in the presence of chemical substance/The level of expressed mRNA in the absence of chemical substance (yeast gene YPL196W): 1.3 | The level of expressed mRNA in the presence of chemical substance/The level of expressed mRNA in the absence of chemical substance (yeast gene YPL206C): 1.0 | level of expressed mRNA in the presence of chemical substance / level in the absence of chemical substance (yeast gene YPL221W): 0.9 | The level of expressed mRNA in the presence of chemical substance/The level of expressed mRNA in the absence of chemical substance (yeast gene YPL222W): 0.9 | level of expressed mRNA in the presence of chemical substance / level in the absence of chemical substance (yeast gene YPL225W): 1.3 | The level of expressed mRNA in the presence of chemical substance/The level of expressed mRNA in the absence of chemical substance (yeast gene YPR023C): 1.2 | level of expressed mRNA in the presence of chemical substance / level in the absence of chemical substance (yeast gene YPR049C): 1.0 | level of expressed mRNA in the presence of chemical substance / level in the absence of chemical substance (yeast gene YPR146C): 0.8 | level of expressed mRNA in the presence of chemical substance / level in the absence of chemical substance (yeast gene YPR148C): 1.1 | The level of expressed mRNA in the presence of chemical substance/The level of expressed mRNA in the absence of chemical substance (yeast gene YPR151C): 2.3 | level of expressed mRNA in the presence of chemical substance / level in the absence of chemical substance (yeast gene YPR172W): 1.1
